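96-well plates; 48 h exposure; 5 concentrations. Endpoints by linear interpolation between flanking doses. Not reached: highest tested concentration assigned. GI50 is the concentration that inhibits growth by half. TGI: total growth inhibition.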 Where a SMILES comes first, the peptide text is derived from it. [ ]: non-standard residue; d: D form. NMeY = CN[C@@H](Cc1ccc(O)cc1)C(=O)O; dNMeF = CN[C@H](Cc1ccccc1)C(=O)O; Sar = CNCC(=O)O
Assays:
Assay in all cases: growth of human tumour cells (NCI), 48 h
[1] = system: MALME-3M melanoma
[2] = system: UO-31 renal
[3] = system: K-562 leukemia
[4] = system: KM12 colon
[5] = system: UACC-62 melanoma
[6] = system: HOP-62 NSCLC
[7] = system: HL-60(TB) leukemia
[8] = system: M14 melanoma
[9] = system: SF-268 CNS

| SMILES | TGI [1] [µM] | TGI [2] [µM] | TGI [3] [µM] | TGI [4] [µM] | TGI [5] [µM] | TGI [6] [µM] | TGI [7] [µM] | TGI [8] [µM] | TGI [9] [µM] | GI50 [1] [µM] | GI50 [2] [µM] | GI50 [3] [µM] | GI50 [4] [µM] | GI50 [5] [µM] | GI50 [6] [µM] | GI50 [7] [µM] | GI50 [8] [µM] | GI50 [9] [µM] |
| --- | --- | --- | --- | --- | --- | --- | --- | --- | --- | --- | --- | --- | --- | --- | --- | --- | --- | --- |
| O=C(O)c1ccc(NCc2nc3cc4ccccc4cc3[nH]2)cc1 | 0.237 | > 100 | > 100 | > 100 | > 100 | > 100 | > 54.8 | > 100 | > 100 | – | – | – | – | – | – | – | – | – |
| COc1ccc(/C=C/C(=O)c2ccc3cc(OC)c(OC)cc3c2)cc1OC | 30.2 | 12.7 | > 100 | 7.95 | 16.9 | 22.1 | 10.1 | 21 | 22.6 | 13.6 | 2.85 | 3.02 | 2.69 | 3.71 | 3.92 | 3.46 | 5.47 | 4.45 |
| CC[C@H](C)[C@@H]1NC(=O)[C@H](Cc2ccc(O)cc2)N(C)C(=O)[C@H](Cc2ccccc2)NC(=O)CN(C)C(=O)[C@@H]2CCCN2C(=O)[C@@H](Cc2ccccc2)N(C)C(=O)[C@H](CC(C)C)NC1=O (cyclo(F[NMeY]IL[dNMeF]P[Sar])) | 1.81 | 13.1 | 31.4 | 5.48 | 2.75 | 5.84 | 3.3 | 2.58 | 6.94 | 0.164 | 2.63 | 0.262 | 0.271 | 0.367 | 0.296 | 0.605 | 0.371 | 0.217 |
| Cc1ccc2c(Nc3cccc(Cl)c3F)ncc(NC(=O)c3csc4c(N)ncnc34)c2c1 | – | > 100 | > 100 | > 100 | – | > 100 | > 100 | 0.608 | > 100 | – | 0.291 | 1.5 | > 20.7 | – | 0.359 | 0.0656 | 0.0351 | > 100 |
| O=Cc1ccc(Oc2c3ccccc3nc3occc23)cc1 | – | > 100 | > 100 | 25.4 | 30.4 | 37.9 | 56.9 | 30.3 | 40.8 | – | 26.4 | 22.6 | 8.79 | 13.1 | 14.8 | 22.9 | 15.9 | 15.5 |
| CCN(CC)CCCOc1cc(O)c2c(=O)cc(-c3ccccc3)oc2c1 | 25 | 15.9 | 3.67 | 33.3 | 12.7 | 19.4 | 15.3 | – | 22.9 | 9.81 | 3.74 | 1.48 | 11.7 | 3.89 | 5.29 | 3.98 | – | 10.1 |
| O=C1c2cc3c(cc2[C@@H]2[C@H]1c1ccc([N+](=O)[O-])cc1C(=O)N2CCCCl)OCO3 | – | – | > 100 | 2.05 | < 0.0171 | – | – | < 0.01 | – | – | < 0.01 | 0.857 | < 0.0113 | < 0.01 | < 0.01 | – | < 0.01 | < 0.01 |
| Cc1ncc(C(=O)Nc2ccc(CN3CCN(C)CC3)c(C(F)(F)F)c2)cc1C#Cc1cnc(N)c2ncccc12 | 0.135 | 0.775 | – | 1.33 | 1.31 | 11.9 | 7.67 | – | 3 | < 0.0177 | 0.0596 | – | – | 0.0276 | 0.704 | 0.164 | – | 0.417 |
| C[C@]12CCC3c4ccc(O)cc4CCC3C1Cc1ccc(O)cc12 (stereo partly specified) | 29.1 | 28.7 | 11.2 | 20.6 | 17.1 | – | 3.29 | 13.6 | 44.2 | 10.8 | 11.8 | 0.794 | 3.4 | 5.25 | – | 1.08 | 3.8 | 11.4 |
| O=C(Nc1ccccc1)NS(=O)(=O)c1ccc(N2N=C3c4ccccc4CC3C2c2ccccn2)cc1 (stereo unspecified) | – | > 100 | 65.6 | 88.7 | 37.2 | 45.5 | – | 51.4 | > 100 | – | 48.8 | 26.7 | 24.8 | 17.8 | 20.4 | – | 24.9 | 62.1 |
| CC[C@H](C)[C@H](NC(=O)Nc1ccccc1)C(=O)N(C)[C@H](C[C@@H](OC(C)=O)c1nc(C(=O)N[C@@H](Cc2ccccc2)C[C@H](C)C(=O)OC)cs1)C(C)C | > 100 | > 100 | – | > 100 | > 100 | > 100 | – | 5.84 | > 100 | 98.2 | 6.82 | – | 2.09 | 1.27 | 3.66 | – | 2.19 | 5.13 |
| COc1cc2ccnc3c2c(c1OC)-c1ccc(=O)ccc1-3 | 75.5 | > 100 | 35.5 | > 100 | 34 | > 100 | – | – | > 100 | 37.9 | 30 | 14.5 | 43.6 | 14.6 | 32.5 | – | – | 39.1 |
| O=C(NC(=S)NNC(=S)NNc1ccccc1)c1ccccc1 | > 100 | > 100 | > 100 | > 100 | – | > 100 | 8.52 | 55.6 | > 100 | 24.2 | 4.69 | 1.13 | 7.09 | – | 4.7 | 3.27 | 7.45 | 8.55 |
| O=C(OCC1OC(OC(=O)c2cc(O)c(O)c(OC(=O)c3cc(O)c(O)c(O)c3)c2)C(OC(=O)c2cc(O)c(O)c(OC(=O)c3cc(O)c(O)c(O)c3)c2)C(OC(=O)c2cc(O)c(O)c(OC(=O)c3cc(O)c(O)c(O)c3)c2)C1OC(=O)c1cc(O)c(O)c(OC(=O)c2cc(O)c(O)c(O)c2)c1)c1cc(O)c(O)c(OC(=O)c2cc(O)c(O)c(O)c2)c1 (stereo unspecified) | – | > 50 | > 50 | 27.1 | > 50 | > 50 | > 50 | > 50 | 31.3 | – | 17.4 | 25.3 | 7.23 | 14.3 | > 50 | 29.4 | 25.3 | 7.21 |
| CCOC(=O)c1ccc(Nc2sc(C(=O)c3cccc([N+](=O)[O-])c3)c(N)c2C#N)cc1 | 23 | 20 | 6.53 | 6.43 | 23.4 | 6.39 | – | 23.9 | 21 | 0.0754 | 0.0543 | 0.0375 | 0.0678 | 0.0789 | 0.108 | – | 0.213 | 0.198 |
